Data: publication PMC9307114, “Discovery and SAR analysis of phenylbenzo[d][1,3]dioxole-based proprotein convertase subtilisin/kexin type 9 inhibitors” (Journal of Enzyme Inhibition and Medicinal Chemistry, 2022)

Experiments:
HepG2 cells = assay: MTT assay on HepG2 cells; assay type: cell-based; conditions: Homo sapiens, mean of three experiments, read-out: HepG2 percentage inhibitory rate
[1] = system: LDL uptake of HepG2 cells; assay: Fluorescent LDL uptake assay in the presence of PCSK9; assay type: cell-based, human; conditions: PCSK9 treatment group 29.82%
Description: Extracellular LDL uptake assay was performed to evaluate the functional effects of PCSK9/LDLR PPI inhibition. The effects of active compounds in improving the capacity of HepG2 cells to uptake the fluorescent LDL were investigated using SBC-115337 as the positive control. […] The tested compound A12, B1, B3, B4 and B14 strengthened the ability of HepG2 cells to absorb LDL from 29.82% of the PCSK9 treatment group up to 32.78%, 33.29%, 39.58%, 36.24% and 42.41% at the doses of 5 µM, and 44.80%, 47.15%, 50.67%, 49.94 and 64.27% at the doses of 10 µM, respectively.
HepG2 cells (2 × 10^4 cells per well) were seeded in black 96-well plates and cultured for more than 24 h. The following day, cells were treated with 4.0 μg/ml K9 alone and the tested compounds with the presence of 4.0 μg/ml of K9, and vehicle (PBS) for 8 h. At the end of the treatments, the culture medium was replaced with 50.0 μl/well LDL-DyLight™ 550 working solution (Cayman Chemical Company, US). The cells were additionally incubated for 16 h at 37 °C. Then the cells were washed with PBS one time, then added PBS with 100.0 μl/well. The degree of LDL uptake was measured using a plate reader (EnSpire, Perkin Elmer Corporation) at excitation wavelengths 540 nm and emission wavelengths 570 nm.

PCSK9/LDLR PPI = PCSK9/LDLR PPI (Homo sapiens, UniProt Q8NBP7); assay: PCSK9-LDLR TR-FRET assay (PCSK9/LDLR PPI inhibitory screening); assay type: binding; conditions: for inhibition at 10 µM: mean of three experiments, read-out: PCSK9 percentage inhibitory rate; for IC50: dose-dependent IC50 plot, Figure 3, read-out: PCSK9 IC50 (inhibition of PCSK9/LDLR PPI)
PCSK9/LDLR PPI, sequence (Q8NBP7 153-692): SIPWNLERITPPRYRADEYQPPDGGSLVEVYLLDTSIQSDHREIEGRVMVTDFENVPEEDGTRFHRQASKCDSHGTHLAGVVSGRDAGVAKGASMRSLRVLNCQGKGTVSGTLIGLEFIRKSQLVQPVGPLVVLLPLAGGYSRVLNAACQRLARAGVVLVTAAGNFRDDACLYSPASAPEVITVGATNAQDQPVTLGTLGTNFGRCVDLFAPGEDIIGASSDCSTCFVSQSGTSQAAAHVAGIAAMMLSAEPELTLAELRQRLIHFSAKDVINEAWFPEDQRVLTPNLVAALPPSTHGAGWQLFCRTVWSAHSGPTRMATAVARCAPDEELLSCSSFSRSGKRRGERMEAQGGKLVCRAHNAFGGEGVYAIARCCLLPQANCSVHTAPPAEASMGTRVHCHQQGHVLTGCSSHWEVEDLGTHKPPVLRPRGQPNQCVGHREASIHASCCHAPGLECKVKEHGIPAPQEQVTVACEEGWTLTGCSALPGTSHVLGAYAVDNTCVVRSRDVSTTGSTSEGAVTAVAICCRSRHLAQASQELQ
PCSK9/LDLR PPI, sequence (Q8NBP7 31-152 partner limits assumed): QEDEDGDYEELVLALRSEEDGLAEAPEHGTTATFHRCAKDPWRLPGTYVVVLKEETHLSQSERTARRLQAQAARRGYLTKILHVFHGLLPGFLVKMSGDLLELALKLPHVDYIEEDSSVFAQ
Description: The PCSK9/LDLR time-resolved fluorescence resonance energy transfer (TR-FRET) assay was performed to evaluate the activity of synthesised compounds in inhibition of PCSK9-LDLR binding. The A series compounds were firstly synthesised for the PCSK9/LDLR PPI inhibitory test. […] Therefore, a group of A12 derivatives (B series) were synthesised with 4-chlorobenzyl substituted in the amino group and various substitutions introduced to the carboxylic group. […] To confirm whether the 4-chloromethyl group is essential for the PPI inhibitory activity, a new series of compounds (C series) were synthesised with the 4-chloromethyl group replaced by 4-methoxymethyl moiety. The inhibitory activity was observed, most likely resulting from the 4-methoxymethyl substitution (Table 3).
The compounds were dissolved in 100% DMSO; then 2 µL of the dilution was added to a 20 µL of reaction to keep […] in all of reactions. The binding reaction was conducted at room temperature. The reaction mixture in assay buffer contains PCSK9, the indicated amount of the inhibitor, ligand LDLR, and the reaction dyes. The reaction mixture was incubated for 120 min before detection of the TR-FRET signal. Fluorescence signals for both the donor and acceptor dyes were measured using a Tecan Infinite M1000 plate reader. TR-FRET was recorded as the ratio of the fluorescence of the acceptor and the donor dyes (acceptor/donor). The TR-FRET data were analysed using Graphpad Prism software.

[2] = system: LDLR level on the surface of HepG2 cells; assay: LDLR expression assay, In-Cell Western (ICW), in the presence of PCSK9; assay type: cell-based, human; conditions: for effect on LDLR protein level (in words): HepG2 cells in the presence of PCSK9, compared with positive control SBC-115337; for proportion of LDLR: PCSK9 alone 34.33%
Description: LDLR is degraded in lysosomes by binding to PCSK9. Thus, inhibition of PCSK9/LDLR PPI could increase the LDLR level on the surface of hepatocytes. In the current study, human hepatic HepG2 cells were selected for the investigation of the active compounds for LDLR expression. SBC-115337, developed by Shifa Biomedical Corporation, as a potent PCSK9/LDLR PPI inhibitor was utilised as the positive control. All the synthesised compounds were evaluated to be safe with low inhibitory ratios at the dose of 10 µM in the MTT assay (Tables 1–3). Then, in cell western (ICW) assay was performed to detect the LDLR level on the surface of HepG2 cells.
The HepG2 cell line was grown in a humidified incubator with 5% CO2 at 37 °C and cultured in DMEM-High glucose medium with 10% (v/v) heat-inactivation foetal bovine serum, 2 mM L-glutamine and 100 U/ml penicillin-streptomycin. The expression level of LDLR in HepG2 cells was determined by In-Cell Western (ICW) Assay as described previously. Briefly, cells were plated in a 96-well plate (2 × 10^4 cells per well) and cultured for more than 24 h, followed by washing with PBS and starving overnight in DMEM without FBS. HepG2 cells were treated with 4.0 μg/ml PCSK9 (K9) alone and the tested compounds with the presence of 4.0 μg/ml of K9, and vehicle (PBS) for 8 h. Then cells were washed with PBS one time and fixed in 4% paraformaldehyde for 20 min. Cells were washed 5 times with PBS, then were blocked with 5% BSA in PBS for 1 h. LDLR monoclonal Antibody solution (1:1000 in 5% BSA in PBS, 50.0 μL/well) was incubated overnight at 4 °C. Subsequently, the cells were washed 5 times with PBS. Goat anti-mouse IgG-HRP secondary antibody solution (1:2000 in 5% BSA in PBS, 50.0 μL/well) was added and incubated 1 h at RT. Then cells were washed 5 times with PBS and added with TMB substrate, then incubated at RT until desired colour was developed. 50.0 μL/well of 2 M H2SO4 were added to stop the reaction and the absorbance at 450 nm was measured using a plate reader (EnSpire, Perkin Elmer Corporation).

[3] = 5 µM compound with 4.0 μg/ml PCSK9
[4] = 10 µM compound with 4.0 μg/ml PCSK9

inhibition at 10 µM (PCSK9/LDLR PPI) [%] | IC50 (PCSK9/LDLR PPI) [µM] | SMILES | inhibition at 10 µM (HepG2 cells) [%] | LDL uptake of HepG2 cells [1, 3] [%] | LDL uptake of HepG2 cells [1, 4] [%] | effect on LDLR protein level (in words) [2] | proportion of LDLR ([2]; 5 µM compound with 4.0 μg/ml PCSK9, 8 h) [%] | proportion of LDLR ([2]; 10 µM compound with 4.0 μg/ml PCSK9, 8 h) [%]
45.2 ± 2.85 | 24.6 | O=C(Nc1ccc(O)cc1)c1ccc(-c2cc3c(cc2NC(=O)c2ccc(CCl)cc2)OCO3)cc1 [B4, 4-(Chloromethyl)-N-(6-(4-((4-hydroxyphenyl)carbamoyl)phenyl)benzo[d][1,3]dioxol-5-yl)benzamide] | 5.42 ± 0.38 | 36.24 | 49.94 | restored the LDLR protein level in a dose dependent manner |  | 
64.6 ± 1.54 | 16.4 | COc1ccccc1N1CCN(C(=O)c2ccc(-c3cc4c(cc3NC(=O)c3ccc(CCl)cc3)OCO4)cc2)CC1 [B14, 4-(Chloromethyl)-N-(6-(4-(4-(2-methoxyphenyl)piperazine-1-carbonyl)phenyl)benzo[d][1,3]dioxol-5-yl)benzamide] | 5.71 ± 0.54 | 42.41 | 64.27 | restored the LDLR protein level in a dose dependent manner | 50.55 | 66.51
